What all share (test): growth of human tumour cells (NCI), 48 h
In assay [1] the test system is SK-OV-3 ovarian.
Assay [2] has as its system A498 renal.
Assay [3] concerns SR leukemia.
Assay [4] concerns SK-MEL-28 melanoma.
Assay [5] relates to OVCAR-4 ovarian.
The test system of assay [6] is RPMI-8226 leukemia.
In assay [7] the test system is U251 CNS.
Assay [8] has as its system ACHN renal.
In assay [9] the test system is LOX IMVI melanoma.
For assay [10], the system named is NCI-H226 lung.

The values below come from PubChem BioAssay (NCI).

Molecules are shown by their SMILES.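 Exposure lasted 48 hours, with cells grown in 96-well plates and compounds tested at five concentrations. Abbreviation: GI50, concentration required for 50% inhibition of growth. TGI: total growth inhibition.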

In the case of `CCN(Cc1ccc(Cl)s1)c1ccc(CO)c(Cl)c1`, the GI50 in assay [1] was 2.74 µM; in assay [2] it was 0.0495 µM; in assay [3], 17.6 µM; in assay [4], 11.8 µM; in [5], 0.134 µM; in assay [6] it was 1.41 µM. Also, the GI50 in [7] was 0.434 µM; in [8], 4.68 µM; in [9] it was 5.24 µM; in [10] it was 0.0915 µM. Further, the TGI in assay [1] came out at 18.2 µM; in assay [2], 0.189 µM; in [3], 57.1 µM; in [4], 25.4 µM; in assay [5], 0.776 µM; in assay [6], 24.5 µM. In addition, the TGI in [7] was 13.2 µM; in assay [8], > 100 µM; in assay [9], 18.8 µM; in assay [10], 0.232 µM.

As for `CCOc1nc(N)nc(C)c1N=Nc1ccc(Cl)cc1`, the TGI in [1] was > 100 µM; in assay [3], 23.9 µM; in assay [4] it was > 100 µM; in [5], > 100 µM; in [6] it was 88.4 µM; in [7], > 100 µM. The TGI in assay [8], in assay [9] and in assay [10] was > 100 µM each time.

Regarding `C/C=C(\C)c1cc(O)c(C)c2c1Oc1cc(O)c(Cl)c(C)c1C(=O)O2`, the TGI came to 49.5 µM in [3]; 72.2 µM in assay [4]; 34.5 µM in assay [5]; 39.6 µM in assay [7]; 54.6 µM in assay [8]; 31.6 µM in assay [9]. Also, in [10], the TGI is 33.6 µM.

In the case of `COC(=O)C(C)(C)N=CN(C)C`, the TGI in assay [1], in assay [2], in assay [3], in assay [4], in [5] and in assay [7] was > 100 µM in each case. In addition, the TGI in [8], in assay [9] and in assay [10] was > 100 µM each time.

As to `CCOC1=C2N=C(Cc3ccccc3F)N=C2C(=O)c2ccccc21`, the TGI in assay [3], in assay [4], in assay [5], in assay [6], in assay [7] and in [8] was > 100 µM throughout. For the same compound, the TGI in assay [10] is > 100 µM.

As for `O=C(NC1CCCC1=O)c1ccccc1` (configuration not stated), the TGI in assay [1], in assay [2], in assay [3], in [4], in [5] and in [7] was > 100 µM each time. In addition, the TGI in assay [8] and in [10] was > 100 µM in each case.

For `CCC1(O)C(=O)OCc2c1cc1n(c2=O)Cc2cc3cc(N)ccc3nc2-1` (configuration not stated), the TGI was 0.207 µM in assay [1]; 1.06 µM in assay [2]; 0.0122 µM in assay [3]; 41.8 µM in assay [4]; > 22 µM in assay [5]; 4.94 µM in assay [6]. The results for the TGI in assay [7], in assay [8] and in assay [9] were 0.129 µM, 0.0142 µM and 0.059 µM, respectively. In addition, the GI50 in [4] is 0.493 µM.

As for `CC(C)(C)CN1CCn2c(nc3c(N)nccc32)S1`, the GI50 in [1] is 5.15 µM; in [3], 3.24 µM; in assay [4] it was 13.5 µM; in assay [5], 13.6 µM; in [6], 36.1 µM; in assay [7] it was 13.3 µM. In addition, the results for the GI50 in assay [8], in assay [9] and in [10] were 7.45 µM, 9.5 µM and 37.2 µM, respectively. Also, the TGI in assay [1] is 81 µM; in [3], 47.4 µM; in [4], 29.7 µM; in [5], 40.1 µM; in assay [6], > 100 µM; in assay [7] it was 47.2 µM. The TGI in assay [8] is > 100 µM; in [9] it was 23.5 µM; in [10], > 100 µM.

Regarding `CCOC(=O)C(=O)Nc1cc(Cl)ccc1Cl`, the TGI in assay [1], in [2], in [3], in assay [4], in assay [5] and in assay [6] was > 100 µM throughout. Also, the TGI in [7], in [8] and in [10] was > 100 µM throughout.

With `COc1ccc(C(Cl)=C(c2ccc(OCCN(C)C)cc2)c2ccc(OCCN(C)C)cc2)cc1`, the TGI worked out at 7.69 µM in [1]; 3.16 µM in [3]; 3.11 µM in assay [4]; 5.99 µM in assay [5]; 3.83 µM in assay [6]; 3.25 µM in [7]. In addition, the TGI was 4.72 µM in [8] and 3.42 µM in assay [10].

With `Fc1cccc(C2SCc3nc4ccccc4n32)c1F` (configuration not stated), the TGI in assay [1], in assay [2], in assay [3], in assay [5], in assay [6] and in assay [7] was > 100 µM each time. Also, the TGI in [8], in assay [9] and in assay [10] was > 100 µM throughout.

With `N#Cc1ccc(N=Cc2c([O-])ccc3ccccc23)cc1.[C-]#[O+].[C-]#[O+].[Ir]`, the GI50 in assay [1] is 21.1 µM; in assay [2], 22.5 µM; in [3], 4.17 µM; in [4], 10.4 µM; in [5], 3.85 µM; in assay [6] it was 5 µM. Besides, the GI50 in assay [7] is 13 µM; in assay [8], 6.32 µM; in [9], 9.88 µM. For the same compound, the TGI was determined as 39.1 µM in assay [1]; 37.5 µM in [2]; 20.6 µM in [3]; 22.1 µM in assay [4]; 17.7 µM in [5]; 25.1 µM in assay [6]. The TGI is 25.7 µM in assay [7], 18.7 µM in assay [8] and 22.4 µM in assay [9].
